Measured values reported in the supplement of paper PMC10307832.

Experiments:
Assay in all cases: relative viability (nuclei count vs DMSO), 5 days (fraction); higher = more cells survive
Selisistat + Foretinib = compound: C1CC(C2=C(C1)C3=C(N2)C=CC(=C3)Cl)C(=O)N [Selisistat] + COc1cc2c(Oc3ccc(NC(=O)C4(C(=O)Nc5ccc(F)cc5)CC4)cc3F)ccnc2cc1OCCCN1CCOCC1 [Foretinib] (partner 0.25 µM)
How it was run: (§1)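 A single step with final 0.05% Triton X-100, 1% formaldehyde and 1 ug/ml Hoechst fixed the cells and stained nuclei 5 days after treatment. Lung cancer cell lines in 1536-well plates had been treated by pin tool the day after seeding with one drug alone or a fixed anchor-drug dose plus five library-drug doses (not always all listed) in √10 steps, and nuclei were counted on 4× images. Relative viability is the ratio of nuclei in treated wells to nuclei in vehicle wells, taken as the median of duplicate plates.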

Serdemetan + OSI-027 = compound: c1ccc2c(CCNc3ccc(Nc4ccncc4)cc3)c[nH]c2c1 [Serdemetan] + COc1cccc2cc(-c3nc([C@H]4CC[C@H](C(=O)O)CC4)n4ncnc(N)c34)[nH]c12 [OSI-027] (partner 0.5 µM)
How it was run: as §1

Serdemetan + Lapatinib = compound: c1ccc2c(CCNc3ccc(Nc4ccncc4)cc3)c[nH]c2c1 [Serdemetan] + CS(=O)(=O)CCNCc1ccc(-c2ccc3ncnc(Nc4ccc(OCc5cccc(F)c5)c(Cl)c4)c3c2)o1 [Lapatinib] (partner 2 µM)
How it was run: as §1

Serdemetan + Pemetrexed = compound: c1ccc2c(CCNc3ccc(Nc4ccncc4)cc3)c[nH]c2c1 [Serdemetan] + Nc1nc2[nH]cc(CCc3ccc(C(=O)N[C@@H](CCC(=O)O)C(=O)O)cc3)c2c(=O)[nH]1 [Pemetrexed] (partner 0.2 µM)
How it was run: as §1

Row | Cell Line | relative viability (Selisistat + Foretinib; first compound 0.4 µM) | relative viability (Selisistat + Foretinib; first compound 1.265 µM) | relative viability (Selisistat + Foretinib; first compound 4 µM) | relative viability (Selisistat + Foretinib; first compound 12.65 µM) | relative viability (Selisistat + Foretinib; first compound 40 µM) | relative viability (Serdemetan + OSI-027; first compound 0.04 µM) | relative viability (Serdemetan + OSI-027; first compound 0.1265 µM) | relative viability (Serdemetan + OSI-027; first compound 0.4 µM) | relative viability (Serdemetan + OSI-027; first compound 1.265 µM) | relative viability (Serdemetan + OSI-027; first compound 4 µM) | relative viability (Serdemetan + Lapatinib; first compound 0.04 µM) | relative viability (Serdemetan + Lapatinib; first compound 0.1265 µM) | relative viability (Serdemetan + Lapatinib; first compound 0.4 µM) | relative viability (Serdemetan + Lapatinib; first compound 4 µM) | relative viability (Serdemetan + Pemetrexed; first compound 0.04 µM) | relative viability (Serdemetan + Pemetrexed; first compound 0.1265 µM) | relative viability (Serdemetan + Pemetrexed; first compound 0.4 µM) | relative viability (Serdemetan + Pemetrexed; first compound 1.265 µM) | relative viability (Serdemetan + Pemetrexed; first compound 4 µM) | relative viability (Serdemetan + Lapatinib; first compound 1.265 µM)
1 | NCI-H3122 | 0.996 | 0.942 | 0.881 | 0.97 | 1.03 | 0.98 | 0.949 | 0.943 | 0.322 | 0.974 | 1 | 0.98 | 1 | 1.03 | 0.182 | 0.201 | 0.197 | 0.178 | 0.2 | 
2 | PC-3 [JPC-3] | 1.07 | 1.04 | 1.01 | 1.07 | 1.06 | 0.83 | 0.741 | 0.58 | 0.749 | 0.831 | 0.439 | 0.471 |  | 0.465 | 1.12 | 1.07 | 0.991 | 0.829 | 1.05 | 0.447
3 | PC-14 | 0.946 | 0.982 | 0.826 | 0.908 | 0.946 | 0.843 | 0.767 | 0.139 | 0.759 | 0.514 | 0.335 | 0.3 | 0.295 | 0.251 | 0.133 | 0.139 |  | 0.137 | 0.143 | 0.259
4 | RERF-LC-KJ | 0.902 | 0.783 | 0.84 | 0.829 | 0.803 | 0.589 | 0.711 | 0.442 | 0.498 | 0.401 | 0.757 | 0.811 | 0.826 | 0.754 | 0.455 | 0.456 | 0.452 | 0.475 | 0.49 | 0.8
5 | SK-LU-1 | 0.883 | 0.811 | 0.865 | 0.813 | 0.825 | 0.424 | 0.405 | 0.405 |  | 0.246 | 0.758 | 0.772 | 0.822 | 0.612 | 0.941 | 0.895 | 1.07 | 0.908 | 0.722 | 0.781
6 | SK-MES-1 | 0.908 | 0.762 | 0.624 | 0.879 | 0.883 | 0.572 | 0.578 | 0.621 | 0.541 | 0.447 | 0.416 | 0.503 | 0.466 | 0.387 | 0.938 | 0.89 | 0.824 | 0.772 | 0.841 | 0.381
7 | SW 1573 | 0.954 | 0.806 | 0.821 | 0.931 | 0.929 | 0.749 | 0.705 | 0.716 | 0.439 | 0.289 | 1.09 | 1.11 | 1.05 | 0.596 | 0.869 | 0.851 | 0.887 | 0.689 | 0.376 | 0.93
